This passage reports IC50 results from patent US20250340529A1, “Heterocyclic Compounds as Immunomodulators of PD-L1 Interactions” (Ascletis BioScience Co., Ltd, priority 2021, published 2025).

Sequence of PD-1/PD-L1 (Q9NZQ7 19-238): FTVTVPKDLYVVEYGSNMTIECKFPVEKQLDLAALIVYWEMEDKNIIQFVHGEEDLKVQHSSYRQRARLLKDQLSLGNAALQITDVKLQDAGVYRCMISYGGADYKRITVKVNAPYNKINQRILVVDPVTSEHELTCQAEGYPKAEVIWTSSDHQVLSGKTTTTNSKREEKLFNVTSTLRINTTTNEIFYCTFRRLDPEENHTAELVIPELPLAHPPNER

The assay addresses PD-1/PD-L1 (Homo sapiens (Human), UniProt Q9NZQ7). Briefly: PD-1/PD-L1 Homogeneous Time-Resolved Fluorescence (HTRF) binding assay. Particulars: 3 nM PD1, 10 nM PD-L1, 25° C., PBS pH 7.4. As for the experimental part:
PD-1/PD-L1 Homogeneous Time-Resolved Fluorescence (HTRF) Binding Assay
The assays were conducted in a standard black 384-well polystyrene plate with a final volume of 20 μL. Inhibitors were first serially diluted in DMSO and then added to the plate wells before the addition of other reaction components. The final concentration of DMSO in the assay was 1%. The assays were carried out at 25° C. in the PBS buffer (pH 7.4) with 0.05% Tween-20 and 0.1% BSA. Recombinant human PD-L1 protein (19-238) with a Histag at the C-terminus was purchased from AcroBiosystems (PD1-H5229). Recombinant human PD-1 protein (25-167) with Fe tag at the C-terminus was also purchased from AcroBiosystems (PD1-H5257). PD-L1 and PD-1 proteins were diluted in the assay buffer and 10 μL was added to the plate well. Plates were centrifuged and proteins were preincubated with inhibitors for 40 minutes. The incubation was followed by the addition of 10 μL of HTRF detection buffer supplemented with Europium cryptate-labeled anti-human IgG (PerkinElmer-AD0212) specific for Fe and anti-His antibody conjugated to SureLight®-Allophycocyanin (APC, PerkinElmer-AD0059H). After centrifugation, the plate was incubated at 25° C. for 60 min. before reading on a PHERAstar FS plate reader (665 nm/620 nm ratio). Final concentrations in the assay were—3 nM PD1, 10 nM PD-L1, 1 nM europium anti-human IgG and 20 nM anti-His-Allophycocyanin. IC50 determination was performed by fitting the curve of percent control activity versus the log of the inhibitor concentration.
(TR-FRET usually uses a lanthanide donor and a delayed reading to cut background.)
Broadly, the IC50 is the concentration at which inhibition is half-maximal. A high value points to lower potency. As to `Nc1cc2c(cc1-c1cccc(-c3cccc(-c4cc5c(cc4N)N(C[C@@H]4CCC(=O)N4)C(=O)CO5)c3Cl)c1Cl)OCC(=O)N2C[C@@H]1CCC(=O)N1` [Compound 354], the IC50 is 2.18 µM.

For the compound `O=C(O)CCCCNCCN1C(=O)COc2cc(-c3cccc(-c4cccc(-c5ccc6c(c5)OCC(=O)N6CCNCCCCC(=O)O)c4Cl)c3Cl)ccc21` [Compound 490], the 50% inhibitory concentration (IC50) is 0.00351 µM.

In the case of `O=C1CC[C@@H](CN2CCCc3cc(-c4cccc(-c5cccc(-c6ccc7c(c6)CCCN7C[C@@H]6CCC(=O)N6)c5Cl)c4Cl)ccc32)N1` [Compound 303], the IC50 came to 0.187 µM.

Turning to `O=C1CC[C@@H](CN2C(=O)COc3cc(-c4cccc(-c5cccc(-c6cc(Cl)c7c(c6)OCC(=O)N7C[C@@H]6CCC(=O)N6)c5Cl)c4Cl)cc(Cl)c32)N1` [Compound 376], the IC50 worked out at 0.2 µM.

In turn, `O=C(O)C1CCC(=O)N1CCN1C(=O)COc2cc(-c3cccc(-c4cccc(-c5ccc6c(c5)OCC(=O)N6CCN5C(=O)CCC5C(=O)O)c4Cl)c3Cl)ccc21` (centres unmarked) [Compound 573] gave a 50% inhibitory concentration (IC50) of 0.287 µM.

`O=C1CC[C@H](CN2C(=O)COc3cc(-c4cccc(-c5cccc(-c6ccc7c(c6)OCC(=O)N7C[C@H]6CCC(=O)N6)c5Cl)c4Cl)ccc32)N1` [Compound 448] displayed a concentration for half-maximal inhibition (IC50) of 0.00545 µM.

Compound `O=C(O)[C@@H]1C[C@H](O)CN1CCN1C(=O)COc2cc(-c3cccc(-c4cccc(-c5ccc6c(c5)OCC(=O)N6CCN5C[C@@H](O)C[C@H]5C(=O)O)c4Cl)c3Cl)ccc21` [Compound 478] registered an IC50 of 0.00876 µM.

The compound `N#CCN1C(=O)COc2cc(-c3cccc(-c4cccc(-c5ccc6c(c5)OCC(=O)N6CC#N)c4Cl)c3Cl)ccc21` [Compound 397, 2,2′-((2,2′-dichloro-[1,1′-biphenyl]-3,3′-diyl)bis(3-oxo-2,3-dihydro-4H-benzo[b][1,4]oxazine-7,4-diyl))diacetonitrile] yielded a half-inhibitory concentration (IC50) of 0.305 µM.

Turning to `O=C1COc2cc(-c3cccc(-c4cccc(-c5ccc6c(c5)OCC(=O)N6C[C@@H]5COCCN5)c4Cl)c3Cl)ccc2N1C[C@@H]1CCCCN1` [Compound 559], the IC50 turned out to be 0.00898 µM.

In the case of `O=C1COc2cc(-c3cccc(-c4cccc(-c5ccc6c(c5)OCC(=O)N6CCn5cccn5)c4Cl)c3Cl)ccc2N1CCn1cccn1` [Compound 375], the IC50 was 2.71 µM.

Compound `O=C1COc2cc(-c3cccc(-c4cccc(-c5ccc6c(c5)OCC(=O)N6Cc5nn[nH]n5)c4Cl)c3Cl)ccc2N1Cc1nn[nH]n1` [Compound 412] registered an IC50 not below 3 µM.

`O=C1COc2cc(-c3cccc(-c4cccc(-c5ccc6c(c5)OCC(=O)N6C[C@@H]5CCC(=O)N5)c4Cl)c3Cl)ccc2N1` [Compound 429, (S)-7-(2,2′-dichloro-3′-(3-oxo-3,4-dihydro-2H-benzo[b][1,4]oxazin-7-yl)-[1,1′-biphenyl]-3-yl)-4-((5-oxopyrrolidin-2-yl)methyl)-2H-benzo[b][1,4]oxazin-3(4H)-one]: the IC50 came out at 0.0208 µM.

As for `O=C1COc2cc(-c3cccc(-c4cccc(-c5ccc6c(c5)OCC(=O)N6Cc5ncc[nH]5)c4Cl)c3Cl)ccc2N1Cc1ncc[nH]1` [Compound 415], the concentration for half-maximal inhibition (IC50) is 0.104 µM. Compared with the last compound, the IC50 is about 5-fold higher.

Compound `O=C1COc2cc(-c3cccc(-c4cccc(-c5ccc6c(c5)OCC(=O)N6C[C@@H]5CCCN5)c4Cl)c3Cl)ccc2N1CCN1CC[C@H](O)C1` [Compound 515] came in with a half-maximal inhibitory concentration (IC50) of 0.00871 µM.

In turn, `O=C1COc2cc(-c3cccc(-c4cccc(-c5ccc6c(c5)OCC(=O)N6CCN5CCNC5=O)c4Cl)c3Cl)ccc2N1` [Compound 385] had an IC50 of 0.264 µM.

In turn, `CC1(C)Oc2cc(-c3cccc(-c4cccc(-c5ccc6c(c5)OC(C)(C)C(=O)N6C[C@@H]5CCC(=O)N5)c4Cl)c3Cl)ccc2N(C[C@@H]2CCC(=O)N2)C1=O` [Compound 372] had an IC50 not below 3 µM.

Regarding `O=C1NCCN1CCN1C(=O)COc2cc(-c3cccc(-c4cccc(-c5ccc6c(c5)OCC(=O)N6CCN5CCNC5=O)c4Cl)c3Cl)ccc21` [Compound 384], the concentration for half-maximal inhibition (IC50) stood at 0.26 µM.

Compound `O=C(O)C1CCN(CCN2C(=O)COc3cc(-c4cccc(-c5cccc(-c6ccc7c(c6)OCC(=O)N7CCN6CCC(C(=O)O)C6)c5Cl)c4Cl)ccc32)C1` (centres unmarked) [Compound 469] came in with an IC50 of 0.00402 µM.

For the compound `O=C1CC[C@@H](CN2C(=O)CCc3cc(-c4cccc(-c5cccc(-c6ccc7c(c6)CCC(=O)N7C[C@@H]6CCC(=O)N6)c5Cl)c4Cl)ccc32)N1` [Compound 281, 6,6′-(2,2′-dichloro-[1,1′-biphenyl]-3,3′-diyl)bis(1-(((S)-5-oxopyrrolidin-2-yl)methyl)-3,4-dihydroquinolin-2(1H)-one)], the IC50 was found to be 0.0267 µM.

Take `O=C1COc2cc(-c3cccc(-c4cccc(-c5ccc6c(c5)OCC(=O)N6CCn5cncn5)c4Cl)c3Cl)ccc2N1CCn1cncn1` [Compound 374]: the concentration for half-maximal inhibition (IC50) was determined as 0.0682 µM.

Turning to `CC(C)(C)OC[C@H](NCCN1C(=O)COc2cc(-c3cccc(-c4cccc(-c5ccc6c(c5)OCC(=O)N6CCN[C@@H](COC(C)(C)C)C(=O)O)c4Cl)c3Cl)ccc21)C(=O)O` [Compound 571], the IC50 stood at 0.016 µM.

On to `CC1(C)Cc2cc(-c3cccc(-c4cccc(-c5cnc6c(c5)OC(C)(C)C(=O)N6C[C@@H]5CCC(=O)N5)c4Cl)c3Cl)cnc2N(C[C@@H]2CCC(=O)N2)C1=O` [Compound 382], for which the half-inhibitory concentration (IC50) is not below 3 µM.

Take `N#Cc1cncc(CCN2C(=O)COc3cc(-c4cccc(-c5cccc(-c6ccc7c(c6)OCC(=O)N7CCc6cncc(C#N)c6)c5Cl)c4Cl)ccc32)c1` [Compound 427]: the half-inhibitory concentration (IC50) is 0.0687 µM.

For `Cc1c(-c2ccc3c(c2)OCC(=O)N3CCN2C[C@H](O)C[C@H]2C(=O)O)cccc1-c1cccc(-c2ccc3c(c2)OCC(=O)N3CCN2C[C@H](O)C[C@H]2C(=O)O)c1C` [Compound 514], the IC50 was determined as 0.00446 µM.

`COC(=O)N[C@H](C(=O)N1CCC[C@H]1CN1C(=O)COc2cc(-c3cccc(-c4cccc(-c5ccc6c(c5)OCC(=O)N6C[C@@H]5CCCN5C(=O)[C@@H](NC(=O)OC)C(C)C)c4Cl)c3Cl)ccc21)C(C)C` [Compound 422] had an IC50 not below 3 µM.

With `CN(CCO)CCN1C(=O)COc2cc(-c3cccc(-c4cccc(-c5ccc6c(c5)OCC(=O)N6CCN(C)CCO)c4Cl)c3Cl)ccc21` [Compound 471], the IC50 turned out to be 0.0047 µM.

As to `CC(=O)N1CCC(N2C(=O)COc3cc(-c4cccc(-c5cccc(-c6ccc7c(c6)OCC(=O)N7C6CCN(C(C)=O)CC6)c5Cl)c4Cl)ccc32)CC1` [Compound 408], the IC50 was 0.571 µM.

On to `O=C1C[C@@H](NCCN2C(=O)COc3cc(-c4cccc(-c5cccc(-c6ccc7c(c6)OCC(=O)N7CCN[C@H]6COC(=O)C6)c5Cl)c4Cl)ccc32)CO1` [Compound 527], for which the IC50 was determined as 0.00941 µM.

In turn, `O=C(O)C1CCCCN1CCN1C(=O)COc2cc(-c3cccc(-c4cccc(-c5ccc6c(c5)OCC(=O)N6CCN5CCCCC5C(=O)O)c4Cl)c3Cl)ccc21` (centres unmarked) [Compound 513] yielded a 50% inhibitory concentration (IC50) of 0.00823 µM.

Regarding `O=C1CC[C@@H](CN2C(=O)COc3cc(-c4cccc(-c5cccc(-c6ccc7c(c6)OCC(=O)N7CCN6C[C@H](O)C[C@@H]6C(=O)O)c5Cl)c4Cl)ccc32)N1` [Compound 488], the 50% inhibitory concentration (IC50) was determined as 0.0062 µM.

Compound `O=C1COc2cc(-c3cccc(-c4cccc(-c5ccc6c(c5)OCC(=O)N6C[C@H]5CCNC5)c4Cl)c3Cl)ccc2N1C[C@H]1CCNC1` [Compound 531] registered an IC50 of 0.00722 µM.

Compound `O=C1CC[C@@H](CN2C(=O)COc3nc(-c4cccc(-c5cccc(-c6cnc7c(n6)OCC(=O)N7C[C@@H]6CCC(=O)N6)c5Cl)c4Cl)cnc32)N1` [Compound 466] yielded an IC50 of 0.005 µM.
